Experimental findings from patent publication US7524975B2, “Peroxisome proliferator activated receptor ligand and process for producing the same” (Kaneka Corporation, priority 2001, dated 2009) are described below.

Molecules are shown by their SMILES.

The target in this assay is T1, mouse PPARγ ligand-binding site (Mus musculus, UniProt P37238).
T1 construct: expressed in transfected cells; host or cells: CV-1 cells (African green monkey kidney)
T1 sequence (P37238 174-475 isoform P37238-2): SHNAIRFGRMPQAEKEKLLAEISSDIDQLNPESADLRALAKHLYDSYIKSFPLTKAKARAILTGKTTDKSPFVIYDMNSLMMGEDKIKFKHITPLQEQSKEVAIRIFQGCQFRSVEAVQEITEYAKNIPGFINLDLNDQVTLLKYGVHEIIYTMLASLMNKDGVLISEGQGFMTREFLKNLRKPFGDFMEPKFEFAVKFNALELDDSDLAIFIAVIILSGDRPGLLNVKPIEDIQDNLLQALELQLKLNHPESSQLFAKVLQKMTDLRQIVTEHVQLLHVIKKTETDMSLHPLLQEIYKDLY
The experiment in a line: Measurement of PPARγ ligand activity (GAL4 chimera luciferase reporter in CV-1 cells). Format: cell-based. As to conditions: for PPARγ ligand activity: CV-1 cells, 24 hours, specific activity relative to untreated control (DMSO) = 1.00; for PPARγ ligand activity compared with positive control troglitazone (in words): compared with 0.5 μM troglitazone. The protocol:
CV-1 cells (cultured cells derived from the kidney of a male African green monkey) were inoculated on a 96-well culture plate in a concentration of 6×10^3 cells/well and incubated at 37° C. in 5% CO2 for 24 hours. The medium used was DMEM (Dulbecco's Modified Eagle Medium: GIBCO) containing 10% FBS (fetal bovine serum), 10 ml/L penicillin and streptomycin solution (containing 5000 IU/ml and 5,000 μg/ml, respectively: GIBCO) and 37 mg/L ascorbic acid (Wako Pure Chemical Industries, Ltd.). […] 4xUASg-luc is a reporter plasmid comprising four GAL4 response sequences (UASg) integrated into a region upstream of a luciferase gene. At about 24 hours after transfection, the medium was exchanged with a sample-containing medium, and the cells were cultured for 24 hours (n=4). The sample-containing medium was prepared by dissolving a sample in dimethyl sulfoxide (DMSO) in an amount of 1/1000 based on the medium, while for the untreated control, DMSO in an amount of 1/1000 based on the medium was used in place of the sample. After the cells were washed with a Ca- and Mg-containing phosphate buffered physiological saline (PBS+), LucLite (Packard) was added thereto, and the intensity of luciferase luminescence was measured with a TopCount microplate scintillation/luminescence counter (Packard).
As the control group, pM (plasmid from which the PPARγ ligand-binding site gene was removed) was measured in place of pM-mPPARγ in the same manner as for the measurement group. For each sample, the ratio (measurement group/control group) of the average luminescence intensity of the measurement group (n=4) to that of the control group was calculated, and the specific activity relative to the activity of the untreated control was regarded as the PPARγ ligand activity of the sample.

Consider `COc1c(/C=C/C(=O)c2ccc(O)cc2)ccc(O)c1O` [Compound 25, Licochalcone B], for which the “PPARγ ligand activity compared with positive control troglitazone (in words)” value is listed as “slightly weaker than that of a positive control containing 0.5 μM troglitazone”. In addition, the PPARγ ligand activity (added concentration 2 μg/ml) is 1.27. For the setting “added concentration 5 μg/ml”, the PPARγ ligand activity came out at 1.93. Where the note is “added concentration 10 μg/ml”, this compound returned a PPARγ ligand activity of 1.61.
As to `CC(C)=CCc1c(O)cc(O)c2c(=O)c(-c3ccc(O)cc3)coc12` [Compound 10, Lupiwighteone], the PPARγ ligand activity runs as follows: (added concentration 2 μg/ml) 1.67; (added concentration 5 μg/ml) 2.53; (added concentration 10 μg/ml) 3.75.
With `COc1c(/C=C/C(=O)c2ccc(O)cc2)ccc(O)c1CC=C(C)C` [Compound 26, Licochalcone C], the PPARγ ligand activity was 1.84 (added concentration 2 μg/ml), 2.20 (added concentration 5 μg/ml) and 3.71 (added concentration 10 μg/ml).
In the case of `O=C(/C=C/c1ccc(O)cc1)c1ccc(O)cc1O` [Compound 13, Isoliquiritigenin], the PPARγ ligand activity runs as follows: (added concentration 2 μg/ml) 1.47; (added concentration 5 μg/ml) 2.71; (added concentration 10 μg/ml) 3.39.
`CC(C)=CCc1cc(C(=O)CC(=O)c2cc3c(cc2O)OC(C)(C)C=C3)ccc1O` [Compound 28, Glycyrdione C]: the “PPARγ ligand activity compared with positive control troglitazone (in words)” value is listed as “slightly weaker than that of a positive control containing 0.5 μM troglitazone”. The PPARγ ligand activity (added concentration 2 μg/ml) worked out at 0.96. The compound further had a PPARγ ligand activity (added concentration 5 μg/ml) of 1.48. The PPARγ ligand activity (added concentration 10 μg/ml) amounted to 2.04.
On to `CC(C)=CCc1cc([C@@H]2CC(=O)c3ccc(O)c(CC=C(C)C)c3O2)ccc1O` [Compound 23, Glabrol], for which the PPARγ ligand activity was 1.85 (added concentration 2 μg/ml), 3.48 (added concentration 5 μg/ml) and 3.74 (added concentration 10 μg/ml).
As to `COc1c(CC=C(C)C)c(O)cc2oc(=O)c(-c3ccc(O)cc3O)cc12` [Compound 1, Glycycoumarin], the PPARγ ligand activity reads like this: (added concentration 2 μg/ml) 2.03; (added concentration 5 μg/ml) 2.79; (added concentration 10 μg/ml) 3.82.
For `COc1cc(O)cc2c1C(=O)C(c1cc(O)c3c(c1)C=CC(C)(C)O3)CO2` (centres unmarked) [Compound 9, Glycyrrhisoflavanone], in that order: 2.01, 3.45 and 4.68.
As to `CC1(C)C=Cc2c(ccc3c2OC[C@@H](c2ccc(O)cc2O)C3)O1` [Compound 18, Glabridin], the PPARγ ligand activity by setting is: (added concentration 2 μg/ml) 1.64; (added concentration 5 μg/ml) 2.15; (added concentration 10 μg/ml) 1.98.
For `COc1cc2c(c(OC)c1CC=C(C)C)C=C(c1ccc(O)cc1O)CO2` [Compound 4, 3-(2′,4′-dihydroxyphenyl)-6-(3″,3″-dimethylallyl)-5,7-dimethoxy-2H-chromene], the PPARγ ligand activity by setting is: (added concentration 2 μg/ml) 2.95; (added concentration 5 μg/ml) 3.72; (added concentration 10 μg/ml) 4.00.
For `CC(C)=CCc1cc(-c2coc3cc(O)cc(O)c3c2=O)cc(O)c1O` [Compound 17, Glycyrrhisoflavone], in that order: 1.78, 3.05 and 3.20.
As to `COc1ccc(C2COc3c(ccc4c3C=CC(C)(C)O4)C2)c(O)c1O` (centres unmarked) [Compound 22, 3′-Hydroxyl-4′-O-methylglabridin], the PPARγ ligand activity by setting is: (added concentration 2 μg/ml) 1.61; (added concentration 5 μg/ml) 2.46; (added concentration 10 μg/ml) 1.69.
With `CC(C)=CCc1cc(-c2oc3cc(O)cc(O)c3c(=O)c2O)ccc1O` [Compound 6, Isolicoflavonol], the PPARγ ligand activity runs as follows: (added concentration 2 μg/ml) 1.73; (added concentration 5 μg/ml) 2.50; (added concentration 10 μg/ml) 3.82.
On to `CC1(C)C=Cc2c(ccc(C3COc4c(ccc5c4C=CC(C)(C)O5)C3)c2O)O1` (centres unmarked) [Compound 20, Hispaglabridin B], for which the “PPARγ ligand activity compared with positive control troglitazone (in words)” value was “slightly weaker than that of a positive control containing 0.5 μM troglitazone”. This compound also had a PPARγ ligand activity (added concentration 2 μg/ml) of 1.04. This compound displayed a PPARγ ligand activity (added concentration 5 μg/ml) of 1.45. In addition, the PPARγ ligand activity (added concentration 10 μg/ml) stood at 1.94.
Compound `COc1c(-c2ccc(O)cc2)oc2cc(O)c(CC=C(C)C)c(O)c2c1=O` [Compound 16, Topazolin] yielded a PPARγ ligand activity (added concentration 2 μg/ml) of 2.56, a PPARγ ligand activity (added concentration 5 μg/ml) of 3.64 and a PPARγ ligand activity (added concentration 10 μg/ml) of 5.84.
Consider `O=c1c(O)c(-c2ccc(O)c(O)c2)oc2cc(O)cc(O)c12` [Quercetin, quercetin, reference compound], for which the “PPARγ ligand activity compared with positive control troglitazone (in words)” value is on record as “not recognized to have a PPARγ ligand activity”. Besides, the PPARγ ligand activity (added concentration 2 μg/ml) is listed as 1.15. In addition, the PPARγ ligand activity (added concentration 5 μg/ml) was 1.72. In addition, for the setting “added concentration 10 μg/ml”, the PPARγ ligand activity was 1.70.
The compound `CC1(C)C=Cc2c(O)ccc(C3=Cc4ccc(O)cc4OC3)c2O1` [Compound 19, Glabrene] gave a PPARγ ligand activity (added concentration 2 μg/ml) of 1.78, a PPARγ ligand activity (added concentration 5 μg/ml) of 3.44 and a PPARγ ligand activity (added concentration 10 μg/ml) of 2.89.
With `CC1(C)C=Cc2cc(-c3coc4cc(O)cc(O)c4c3=O)cc(O)c2O1` [Compound 12, Semilicoisoflavone B], the PPARγ ligand activity came out at 1.86 (added concentration 2 μg/ml), 2.66 (added concentration 5 μg/ml) and 3.15 (added concentration 10 μg/ml).
As for `CC(C)=CCc1c(O)cc2oc(-c3ccc(O)cc3)c(O)c(=O)c2c1O` [Compound 15, Licoflavonol], the PPARγ ligand activity was 1.44 (added concentration 2 μg/ml), 2.27 (added concentration 5 μg/ml) and 4.07 (added concentration 10 μg/ml).
For `COc1ccc(C2COc3c(ccc4c3C=CC(C)(C)O4)C2)c(O)c1` (centres unmarked) [Compound 21, 4′-O-Methylglabridin], in that order: 1.25, 1.55 and 2.13.
For `COc1cc2c(c(O)c1CC=C(C)C)C(=O)C(c1ccc(O)cc1O)CO2` (centres unmarked) [Compound 8, Glyasperin B], in that order: 2.60, 3.53 and 3.02.
For the compound `CC1(C)[C@@H](O)CC[C@]2(C)[C@H]3C(=O)C=C4[C@@H]5C[C@@](C)(C(=O)O)CC[C@]5(C)CC[C@@]4(C)[C@]3(C)CC[C@@H]12` [Glycyrrhetinic acid, glycyrrhetinic acid, reference compound], the “PPARγ ligand activity compared with positive control troglitazone (in words)” value was “not recognized to have a PPARγ ligand activity”. For the same compound, for the setting “added concentration 2 μg/ml”, the PPARγ ligand activity stood at 0.97. The compound also yielded a PPARγ ligand activity (added concentration 5 μg/ml) of 0.95. Besides, the PPARγ ligand activity (added concentration 10 μg/ml) was 0.97.
In the case of `C=CC(C)(C)c1cc(/C=C/C(=O)c2ccc(O)cc2)c(OC)cc1O` [Compound 24, Licochalcone A], the PPARγ ligand activity amounted to 4.02 (added concentration 2 μg/ml), 4.14 (added concentration 5 μg/ml) and 4.16 (added concentration 10 μg/ml).
For `CC(C)=CCc1cc(-c2coc3c(CC=C(C)C)c(O)cc(O)c3c2=O)cc(O)c1O` [Compound 3, Glyurallin B], the PPARγ ligand activity was 1.28 (added concentration 2 μg/ml), 1.96 (added concentration 5 μg/ml) and 2.73 (added concentration 10 μg/ml).
On the same counts, the results for `COc1c2c(cc(O)c1CC=C(C)C)OCC(c1ccc(O)cc1O)=C2` [Compound 7, Dehydroglyasperin C] are 2.90, 3.73 and 4.41.
On the same counts, the results for `COc1cc(O)ccc1/C=C/C(=O)c1ccc(O)cc1` [Compound 5, Echinatin] are 1.45, 2.35 and 2.49.
In the case of `COc1cc2c(c(OC)c1CC=C(C)C)CC(c1ccc(O)cc1O)CO2` (centres unmarked) [Compound 11, Glyasperin D], the PPARγ ligand activity is listed as 3.22 (added concentration 2 μg/ml), 3.28 (added concentration 5 μg/ml) and 4.06 (added concentration 10 μg/ml).
Turning to `COc1c(-c2ccc(O)cc2)oc2cc(O)cc(O)c2c1=O` [Compound 14, Kaempferol3-O-methylester], the PPARγ ligand activity reads like this: (added concentration 2 μg/ml) 1.86; (added concentration 5 μg/ml) 2.37; (added concentration 10 μg/ml) 3.47.
`CC(C)=CCc1cc(C(=O)CC(=O)c2cc(CC=C(C)C)c(O)cc2O)ccc1O` [Compound 27, Glycyrdione A]: the PPARγ ligand activity is, setting by setting: (added concentration 2 μg/ml) 1.44; (added concentration 5 μg/ml) 2.49; (added concentration 10 μg/ml) 3.05.
